Where “and” joins values, the source holds several entries; their conditions need not be identical. Equal values may be shown once.
Target: TEAD2 (Homo sapiens (Human), UniProt Q15562)
Experiment: In vitro palmitoylation (TEAD2 autopalmitoylation, streptavidin blot)
Assay type: biochemical
Conditions: for inhibition at 10 µM / % of inhibition of TEAD2 palmitoylation at 10 μM: compound at 10 μM, Table 2
Method: Recombinant GST-TEAD2 or His6TEAD2 (500 ng) protein was pre-incubated with the compounds at indicated concentrations for 15 min. and then incubated with 1 μM of alkyne palmitoyl-5 CoA (Cayman Chemical) for 30 min or 50 mM MES, pH 6.4, followed by Click reaction with biotin-azide as previously described (Zheng, B. et al., J. Am. Chem. Soc., 2013, 135, 7082-7085). Click reaction was performed with 100 μM biotin-azide, 1 mM tris(2-carboxyethyl) phosphine hydrochloride (TCEP), 100 μM tris[(1-benzyl-1H-1,2,3-triazol-4-yl) methyl] amine (TBTA) and 1 mM CuSO4 for 1 h at RT.
The reactions were terminated by the addition of 12 μL of 6×SDS-sample loading buffer (50 mM Tris-HCl, pH 6.8, 6% SDS, 48% Glycerol, 0.03% Bromophenol Blue, 30 mM EDTA, 9% MeSH). Samples were analysed by SDS-PAGE and Western blot was performed by probing with streptavidin HRP and histidine HRP antibodies independently. Bands intensity obtained from streptavidin blot were quantified using BIORAD, Gel doc system and the percentage of inhibition of Tead2 auto palmitoylation is determined by comparing to the DMSO control treated samples.
These compounds were tested for activity in inhibiting TEAD2 palmitoylation in the assay described above.

TEAD2, sequence (Q15562 whole entry): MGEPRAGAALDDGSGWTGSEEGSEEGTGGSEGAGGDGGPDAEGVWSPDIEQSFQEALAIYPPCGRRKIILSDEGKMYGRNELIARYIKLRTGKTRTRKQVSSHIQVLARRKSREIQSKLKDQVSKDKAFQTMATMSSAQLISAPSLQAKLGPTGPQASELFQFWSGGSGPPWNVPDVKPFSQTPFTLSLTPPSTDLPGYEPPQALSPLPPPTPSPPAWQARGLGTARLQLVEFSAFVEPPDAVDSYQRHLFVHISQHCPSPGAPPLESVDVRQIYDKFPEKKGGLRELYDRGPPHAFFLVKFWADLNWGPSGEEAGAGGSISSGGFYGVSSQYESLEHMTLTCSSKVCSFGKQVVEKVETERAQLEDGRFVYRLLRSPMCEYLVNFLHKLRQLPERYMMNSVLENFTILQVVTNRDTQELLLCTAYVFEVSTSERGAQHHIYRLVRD

inhibition at 10 µM	Compound	other results
52%	CC(C)c1ccccc1-c1ccc(Nc2ccc(Nc3ccccc3C(=O)O)cc2)c(Cl)c1 [Compound 41]	
76%	O=C(O)C1CCCCC1Nc1ccc(Nc2ccc(C34CC5CC(CC(C5)C3)C4)cc2Cl)cc1 (centres unmarked) [Compound 46]	
87%	O=C(O)[C@@H]1CCCN1C(=O)c1ccc(Nc2ccc(C34CC5CC(CC(C5)C3)C4)cc2Cl)cc1 [Compound 48]	
0%	O=C(O)[C@@H]1CCCN1C(=O)Nc1ccc(Nc2ccc(C34CC5CC(CC(C5)C3)C4)cc2Cl)cc1 [Compound 50]	
79%	Cc1ccccc1-c1ccc(Nc2ccc(Nc3ccccc3C(=O)O)cc2)c(Cl)c1 [Compound 51]	
79%	O=C(O)[C@H]1CCCN1C(=O)Nc1ccc(Nc2ccc(C34CC5CC(CC(C5)C3)C4)cc2Cl)cc1 [Compound 52]	
5%	O=C(O)c1ccccc1Nc1ccc(Nc2ccc(-c3ccccc3C(F)(F)F)cc2Cl)cc1 [Compound 53]	
0%	COc1ccccc1-c1ccc(Nc2ccc(Nc3ccccc3C(=O)O)cc2)c(Cl)c1 [Compound 56]	
60%	O=C(O)c1ccccc1Nc1ccc(Nc2ccc(-c3ccccc3Cl)cc2Cl)cc1 [Compound 58]	
99%	O=C(O)c1cccnc1Nc1ccc(Nc2ccc(C34CC5CC(CC(C5)C3)C4)cc2Cl)cc1 [Compound 59]	
100%	O=C(O)c1cccnc1Nc1ccc(C23CC4CC(CC(C4)C2)C3)cc1Cl [Compound 60]	
70%	Cc1ccccc1-c1cc(Cl)c(Nc2ccc(Nc3ccccc3C(=O)O)cc2)cc1C [Compound 61]	
65%	O=C(O)c1ccccc1Nc1ccnc(Nc2ccc(C34CC5CC(CC(C5)C3)C4)cc2Cl)n1 [Compound 62]	
0%	O=C(O)C1CCCC1Nc1cc(Nc2ccc(C34CC5CC(CC(C5)C3)C4)cc2Cl)cc(C(F)(F)F)c1 (centres unmarked) [Compound 64]	
74%	O=C(O)C1CCCC1Nc1ccc(C23CC4CC(CC(C4)C2)C3)cc1 (centres unmarked) [Compound 65]	
25%	O=C(O)C1CCCCC1Nc1ccc(C23CC4CC(CC(C4)C2)C3)cc1 (centres unmarked) [Compound 66]	
31%	CC(C)(C)OC(=O)N(c1cnc(Nc2ccc(C34CC5CC(CC(C5)C3)C4)cc2Cl)cn1)c1ccccc1C(=O)O [Compound 74]	
63%	O=C(O)c1cnccc1Nc1ccc(Nc2ccc(C34CC5CC(CC(C5)C3)C4)cc2Cl)cc1 [Compound 75]	
34%	CC(C)(C)OC(=O)N(c1ccc(Nc2ccc(C34CC5CC(CC(C5)C3)C4)cc2Cl)cn1)c1ccccc1C(=O)O [Compound 76]	
52%	O=C(N[C@H]1CCC[C@H]1C(=O)O)c1ccc(Nc2ccc(C34CC5CC(CC(C5)C3)C4)cc2Cl)cc1 [Compound 77]	
45%	Cc1cc(C23CC4CC(CC(C4)C2)C3)cc(C)c1Nc1ccc(Nc2ccccc2C(=O)O)cc1 [Compound 79]	
40%	O=C(O)c1ccccc1Nc1ccc(Nc2ccc(C34CC5CC(CC(C5)C3)C4)cc2)cc1C(F)(F)F [Compound 80]	
78%	O=C(O)c1ccc(Nc2ccc(Nc3ccc(C45CC6CC(CC(C6)C4)C5)cc3)cc2)cc1 [Compound 81]	
67%	O=C(O)c1ncccc1Nc1ccc(Nc2ccc(C34CC5CC(CC(C5)C3)C4)cc2Cl)cc1 [Compound 82]	
65%	O=C(O)c1ccncc1Nc1ccc(Nc2ccc(C34CC5CC(CC(C5)C3)C4)cc2Cl)cc1 [Compound 83]	
98%	O=C(O)c1cccc(Nc2ccc(Nc3ccc(C45CC6CC(CC(C6)C4)C5)cc3Cl)cc2)c1 [Compound 84]	
20%	O=C(O)c1cncnc1Nc1ccc(Nc2ccc(C34CC5CC(CC(C5)C3)C4)cc2Cl)cc1 [Compound 85]	
54%	O=C(O)c1nccnc1Nc1ccc(Nc2ccc(C34CC5CC(CC(C5)C3)C4)cc2Cl)cc1 [Compound 86]	
4%	CC(C)c1ccccc1-c1ccc(NC(=O)C2CN(CC(=O)O)C2)cc1 [Compound 87]	
12%	O=C(O)C1CCNCC1Nc1ccc(Nc2ccc(C34CC5CC(CC(C5)C3)C4)cc2Cl)cc1 (centres unmarked) [Compound 88]	

Second part, the molecule before the results:

Compound	inhibition at 10 µM	other results
COC(=O)c1ccccc1Nc1ccc(Nc2ccc(C34CC5CC(CC(C5)C3)C4)cc2)cc1 [Compound 2]	0%	
COC(=O)c1ccccc1Nc1cc(Nc2ccc(C34CC5CC(CC(C5)C3)C4)cc2)cc(C(F)(F)F)c1 [Compound 3]	0%	
COC(=O)c1ccccc1Nc1ccc(C(=O)Nc2ccc(C34CC5CC(CC(C5)C3)C4)cc2)cc1 [Compound 4]	0%	
COC(=O)c1ccccc1Nc1ccc(C(=O)Nc2ccc(C34CC5CC(CC(C5)C3)C4)cc2Br)cc1 [Compound 5]	0%	
COC(=O)c1ccccc1Nc1ccc(C(=O)Nc2ccc(C34CC5CC(CC(C5)C3)C4)cc2Cl)cc1 [Compound 6]	0%	
N#Cc1ccccc1Nc1ccc(Nc2ccc(C34CC5CC(CC(C5)C3)C4)cc2Cl)cc1 [Compound 7]	30%	
Clc1cc(C23CC4CC(CC(C4)C2)C3)ccc1Nc1ccc(Cn2cncn2)cc1 [Compound 9]	76%	
Clc1cc(C23CC4CC(CC(C4)C2)C3)ccc1Nc1ccc(Nc2ccccn2)cc1 [Compound 10]	0%	
O=C1CC[n+]2ccccc2N1c1ccc(Nc2ccc(C34CC5CC(CC(C5)C3)C4)cc2Cl)cc1 [Compound 11]	0%	
CN(c1ccc(Nc2ncccc2C(=O)OCCO)cc1)c1ccc(C23CC4CC(CC(C4)C2)C3)cc1Cl [Compound 12]	85%	
Cc1ccccc1Nc1ccc(Nc2ccc(C34CC5CC(CC(C5)C3)C4)cc2)cc1 [Compound 13]	26%	
CCOC(=O)/C=C/c1ccccc1Nc1ccc(Nc2ccc(C34CC5CC(CC(C5)C3)C4)cc2)cc1 [Compound 14]	0%	
O=C1CCc2ccccc2N1c1ccc(Nc2ccc(C34CC5CC(CC(C5)C3)C4)cc2)cc1 [Compound 15]	12%	
CCOC(=O)c1cccc(Nc2ccc(C(=O)Nc3ccc(C45CC6CC(CC(C6)C4)C5)cc3)cc2)n1 [Compound 16]	0%	
COC(=O)c1cccnc1Nc1ccc(Nc2ccc(C34CC5CC(CC(C5)C3)C4)cc2Cl)cc1 [Compound 17]	7%	
O=S1(=O)N=C(Nc2ccc(Nc3ccc(C45CC6CC(CC(C6)C4)C5)cc3Cl)cc2)c2ccccc21 [Compound 18]	35%	
COc1cccc2c1S(=O)(=O)N=C2Nc1ccc(C23CC4CC(CC(C4)C2)C3)cc1 [Compound 19]	35%	
O=C(O)c1ccccc1Nc1ccc(Nc2ccc(C34CC5CC(CC(C5)C3)C4)cc2)cc1 [Compound 24, 2-((4-((4-((3R,5R)-adamantan-1-yl)phenyl)amino)phenyl)amino)benzoic acid]	56%	

Compound	inhibition at 10 µM	other results
O=C(O)c1ccccc1Nc1cccc(Nc2ccc(C34CC5CC(CC(C5)C3)C4)cc2)c1 [Compound 25]	90%	
O=C(O)c1ccccc1Nc1cc(Nc2ccc(C34CC5CC(CC(C5)C3)C4)cc2)cc(C(F)(F)F)c1 [Compound 26]	90%	
O=C(O)c1cccnc1Nc1cc(Nc2ccc(C34CC5CC(CC(C5)C3)C4)cc2)cc(C(F)(F)F)c1 [Compound 27]	90%	
Cc1ccc(Nc2cc(Nc3ccc(C45CC6CC(CC(C6)C4)C5)cc3)cc(C(F)(F)F)c2)c(C(=O)O)c1 [Compound 28]	10%	
O=C(O)c1cc(C(F)(F)F)ccc1Nc1cc(Nc2ccc(C34CC5CC(CC(C5)C3)C4)cc2)cc(C(F)(F)F)c1 [Compound 29]	90%	
O=C(O)c1ccccc1Nc1cc(F)cc(Nc2ccc(C34CC5CC(CC(C5)C3)C4)cc2)c1 [Compound 30]	91%	
Cc1cc(Nc2ccc(C34CC5CC(CC(C5)C3)C4)cc2)cc(Nc2ncccc2C(=O)O)c1 [Compound 32]	60%	
O=C(O)c1ccccc1Nc1cc(Nc2ccc(C34CC5CC(CC(C5)C3)C4)cc2Cl)cc(C(F)(F)F)c1 [Compound 33]	50%	
O=C(O)c1ccccc1Nc1ccc(Nc2ccc(C34CC5CC(CC(C5)C3)C4)cc2)nc1 [Compound 34]	14%	
O=C(Nc1ccc(C23CC4CC(CC(C4)C2)C3)cc1)c1ccc(Nc2ccccc2C(=O)O)cc1 [Compound 35]		% of inhibition of TEAD2 palmitoylation at 10 μM: 63% and 86%
O=C(Nc1ccc(C23CC4CC(CC(C4)C2)C3)cc1Br)c1ccc(Nc2ccccc2C(=O)O)cc1 [Compound 36]	100%	
O=C(Nc1ccc(C23CC4CC(CC(C4)C2)C3)cc1Cl)c1ccc(Nc2ccccc2C(=O)O)cc1 [Compound 37]	30%	
O=C(O)[C@@H]1CCCN1C(=O)Nc1ccc(C23CC4CC(CC(C4)C2)C3)cc1 [Compound 38]	7%	
O=C(O)C1CCCC1Nc1ccc(Nc2ccc(C34CC5CC(CC(C5)C3)C4)cc2Cl)cc1 (centres unmarked) [Compound 39]	59%	
O=C(O)C1CCCC1Nc1ccc(Nc2ccc(C34CC5CC(CC(C5)C3)C4)cc2Cl)cc1 (centres unmarked) [Compound 40]		% of inhibition of TEAD2 palmitoylation at 10 μM: 43%
O=C(O)C1CCCCC1Nc1ccc(Nc2ccc(C34CC5CC(CC(C5)C3)C4)cc2Cl)cc1 (centres unmarked) [Compound 47]		% of inhibition of TEAD2 palmitoylation at 10 μM: 83%
O=C(O)c1ccccc1Nc1ccc(-c2cnc(-c3ccccc3)s2)cc1 [Compound 68]		inhibition of TEAD2 palmitoylation (YES/NO) (Table 2, result printed in words): YES

Reference: US12187722B2, “Small molecule inhibitors of TEAD transcription factors” (The General Hospital Corporation, priority 2019, dated 2025)
